Values after ≈ are worked out from the molar mass of the structure shown. Read-outs that look alike come from different tables or passages of the source. No end group written: not given here.
Key:
facial acne vulgaris = assay: Pilot clinical study, lesion count and irritation evaluated by a dermatologist; assay type: in vivo, human
[1] = tested on: Propionibacterium acnes (ATCC 29399); assay: Minimum Inhibitory Concentration Assay; assay type: cell-based; details: duplicate
Method: (§1) The Minimum Inhibitory Concentration Assay assessed the in vitro antimicrobial potency of the test compound. […] 4 compounds were tested, which are commonly used in cosmetics or to treat acne for their effect on the growth of different P. acnes strains. The 4 tested compounds were glycolic acid, salicylic acid, lactic acid and hyaluronic acid. The first 3 are commonly used in products to treat acne, while the last one is a commonly used cosmetic compound. Any other compound can be tested the same way. The test substance was dissolved in water or DMSO (for salicylic acid) and 4 μl of the test substance was added to 196 μl of growth medium resulting in the highest tested compound concentration. Then this concentration was diluted by 2-fold serial titrations, for a total of 11 concentrations and the final vehicle concentration was 2 percent. Following incubation, the test plate was visually examined and each well was scored for growth or complete inhibition of growth; then the MIC was recorded. Each test substance was evaluated in duplicate. Vehicle-control and an active reference agent (clindamycin) were used as blank and positive controls, respectively. The following three strains were used to assess whether strain specific differences in the tolerance to these compounds could be observed: • Propionibacterium acnes (ATCC 11827)—A5 • Propionibacterium acnes (ATCC 29399) • Propionibacterium acnes (ATCC 6919)—A1 The final concentrations for each tested compound were: • 1. […] Lactic acid: 100% (13.4M): […]

[2] = tested on: Propionibacterium acnes (ATCC 6919); assay: Minimum Inhibitory Concentration Assay; assay type: cell-based; details: ATCC 6919 (A1), visible growth, duplicate
Method: as §1

[3] = tested on: Propionibacterium acnes (ATCC 11827); assay: Minimum Inhibitory Concentration Assay; assay type: cell-based; details: ATCC 11827 (A5), visible growth, duplicate
Method: as §1

acne = details: McLane, 2001; cited from earlier work
Seb E6/E7 sebocytes [4] = assay: Neutral lipid staining with HCS LipidTOX (lipid production); assay type: cell-based; details: 72 h stimulation; whole-well 5× and individual-cell 20× analysis
Method: An image at 5× magnification was taken from each well and then the relative fluorescence intensity quantified. Each condition was measured in triplicates. As a control, the cells were either unstimulated (blank) or stimulated with cis-9, cis-12 linoleic acid (not shown).
As a negative control, a non-stimulated blank was used and as positive control, the cells were stimulated for lipogenesis with cis-9, cis-12 linoleic acid.
Seb E6/E7 cells, which were seeded in 96-well plates and stimulated as described above were then analyzed for the induction lipid production. After 72 h of stimulation, the cells were stained with HCS LipidTOX deep red neutral lipid stain from Thermo Fisher (product no. H34477) according to the manufacturer's instructions. A final dilution of 1:450 of HCS LipidTOX dye in PBS was used for the staining. The amount of fluorescence was then evaluated using an inverted fluorescence microscope. In one approach, a complete well was imaged at 5× magnification and the total fluorescence in the image was quantified. A clear dose-dependent induction of lipid production was seen. […]
Alternatively, the fluorescent signal of individual cells, which were randomly selected from a higher magnification images, were quantified. 10 cells per image and 3 wells per condition were quantified. […]

Seb E6/E7 sebocytes [5] = tested on: Seb E6/E7 sebocytes
P. acnes = details: Allgaier et al., 1985; cited from earlier work
[6] = Cutibacterium acnes, ATCC29399, visible growth

Compound: O=C(OOC(=O)c1ccccc1)c1ccccc1 [Benzoyl Peroxide, Benzoyl peroxide]
- subjects with reduced lesions (facial acne vulgaris; end of week 1, of 10 subjects): 4 subjects
- subjects improved (dermatologist evaluation, lesions) (facial acne vulgaris; week 1 (day 7), end of 7-day Benzoyl Peroxide phase, 10 subjects): 40%

Compound: O=C(O)CO [Glycolic acid, glycolic acid]
- MIC [1, 6]: 60 mM (≈ 4560 µg/mL)
- MIC ([2]; Cutibacterium acnes, ATCC6919): 18 mM (≈ 1370 µg/mL)
- MIC ([3]; Cutibacterium acnes, ATCC11827): 18 mM (≈ 1370 µg/mL)

Compound: CC1=C(/C=C/C(C)=C/C=C/C(C)=C\C(=O)O)C(C)(C)CCC1 [Isotretinoin]
- side effects (acne): causes skin irritation and also has teratogenic effects

Compound: CCCCC/C=C\C/C=C\CCCCCCCC(=O)O [cis-9, cis-12 linoleic acid]
- induction of lipogenesis (relative fluorescence of neutral lipids) (Seb E6/E7 sebocytes [4]): induce lipogenesis
- cytotoxic effect (low XTT metabolic activity with high LDH activity) (Seb E6/E7 sebocytes [5]; 5 days exposure, different concentrations, triplicates): no significant effect

Compound: CC(O)C(=O)O (centres unmarked) [lactic acid]
- MIC (inhibition of growth) ([1]; visible growth): 0.6%
- MIC (inhibition of growth) [2]: 0.2%
- MIC (inhibition of growth) [3]: 0.2%

Compound: O=C(O)c1ccccc1O [salicylic acid]
- MIC [1, 6]: > 6 mM
- MIC ([2]; Cutibacterium acnes, ATCC6919): > 6 mM
- MIC ([3]; Cutibacterium acnes, ATCC11827): > 6 mM

Compound: CCCCC/C=C\C=C\CCCCCCCCC(=O)O [trans-10, cis 12 linoleic acid, trans-10, cis-12 linoleic acid]
- induction of lipogenesis (relative fluorescence of neutral lipids) (Seb E6/E7 sebocytes [4]): dose-dependent induction of lipogenesis
- cytotoxic effect (low XTT metabolic activity with high LDH activity) (Seb E6/E7 sebocytes [5]): clear dose-dependent cytotoxic effect

Compound: Epidermin: lantibiotic, antibiotic-like peptide naturally produced by S. epidermidis (IASKFICTPGCAKTGSFNSYCC; also: lantibiotic: lanthionine-type bridges, places not given here; UniProt P08136 31-52, looked up)
- activity against P. acnes (P. acnes): highly active

Compound: hyaluronic acid
- MIC ([1]; visible growth): > 6e-05 mM
- MIC [2]: > 6e-05 mM
- MIC [3]: > 6e-05 mM
